Source: PubChem BioAssay (NCI)
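Exposure lasted 48 hours, with cells grown in 96-well plates and compounds tested at five concentrations. The concentration for full growth arrest is given as TGI.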

Assays:
Experiment in all cases: NCI-60 cell line screen, 48 h
786-0 renal = system: 786-0 renal
A498 renal = system: A498 renal
A549 NSCLC = system: A549 NSCLC
ACHN renal = system: ACHN renal
CAKI-1 renal = system: CAKI-1 renal
CCRF-CEM leukemia = system: CCRF-CEM leukemia
COLO 205 colon = system: COLO 205 colon
DLD-1 colon = system: DLD-1 colon
DMS 114 small cell lung = system: DMS 114 small cell lung
DMS 273 small cell lung = system: DMS 273 small cell lung
EKVX NSCLC = system: EKVX NSCLC
HCC-2998 colon = system: HCC-2998 colon
HCT-116 colon = system: HCT-116 colon
HOP-18 NSCLC = system: HOP-18 NSCLC
HOP-62 NSCLC = system: HOP-62 NSCLC
HOP-92 NSCLC = system: HOP-92 NSCLC
HT29 colon = system: HT29 colon
IGROV1 ovarian = system: IGROV1 ovarian
K-562 leukemia = system: K-562 leukemia
KM12 colon = system: KM12 colon
KM20L2 colon = system: KM20L2 colon
LOX IMVI melanoma = system: LOX IMVI melanoma
LXFL 529 NSCLC = system: LXFL 529 NSCLC
M14 melanoma = system: M14 melanoma
M19-MEL melanoma = system: M19-MEL melanoma
MALME-3M melanoma = system: MALME-3M melanoma
MOLT-4 leukemia = system: MOLT-4 leukemia
NCI-H226 lung = system: NCI-H226 lung
NCI-H23 lung = system: NCI-H23 lung
NCI-H460 lung = system: NCI-H460 lung
NCI-H522 lung = system: NCI-H522 lung
OVCAR-3 ovarian = system: OVCAR-3 ovarian
OVCAR-4 ovarian = system: OVCAR-4 ovarian
OVCAR-5 ovarian = system: OVCAR-5 ovarian
OVCAR-8 ovarian = system: OVCAR-8 ovarian
RPMI-8226 leukemia = system: RPMI-8226 leukemia
RXF-631 renal = system: RXF-631 renal
SF-268 CNS = system: SF-268 CNS
SF-295 CNS = system: SF-295 CNS
SF-539 CNS = system: SF-539 CNS
SK-MEL-2 melanoma = system: SK-MEL-2 melanoma
SK-MEL-28 melanoma = system: SK-MEL-28 melanoma
SK-MEL-5 melanoma = system: SK-MEL-5 melanoma
SK-OV-3 ovarian = system: SK-OV-3 ovarian
SN12C renal = system: SN12C renal
SNB-19 CNS = system: SNB-19 CNS
SNB-75 CNS = system: SNB-75 CNS
SNB-78 CNS = system: SNB-78 CNS
SR leukemia = system: SR leukemia
SW-620 colon = system: SW-620 colon
TK-10 renal = system: TK-10 renal
U251 CNS = system: U251 CNS
UACC-257 melanoma = system: UACC-257 melanoma
UACC-62 melanoma = system: UACC-62 melanoma
UO-31 renal = system: UO-31 renal
XF 498 CNS = system: XF 498 CNS

Measured: TGI

C#CCOCn1cnc2c(N)ncnc21
> 100 µM: 786-0 renal | A498 renal | A549 NSCLC | ACHN renal | CAKI-1 renal | CCRF-CEM leukemia | COLO 205 colon | DLD-1 colon | DMS 114 small cell lung | DMS 273 small cell lung | EKVX NSCLC | HCC-2998 colon | HCT-116 colon | HOP-18 NSCLC | HOP-62 NSCLC | HOP-92 NSCLC | HT29 colon | IGROV1 ovarian | K-562 leukemia | KM12 colon | KM20L2 colon | LOX IMVI melanoma | LXFL 529 NSCLC | M14 melanoma | M19-MEL melanoma | MALME-3M melanoma | MOLT-4 leukemia | NCI-H226 lung | NCI-H23 lung | NCI-H460 lung | NCI-H522 lung | OVCAR-3 ovarian | OVCAR-4 ovarian | OVCAR-5 ovarian | OVCAR-8 ovarian | RPMI-8226 leukemia | RXF-631 renal | SF-268 CNS | SF-295 CNS | SF-539 CNS | SK-MEL-2 melanoma | SK-MEL-28 melanoma | SK-MEL-5 melanoma | SK-OV-3 ovarian | SN12C renal | SNB-19 CNS | SNB-75 CNS | SNB-78 CNS | SR leukemia | SW-620 colon | TK-10 renal | U251 CNS | UACC-257 melanoma | UACC-62 melanoma | UO-31 renal | XF 498 CNS
